The values below come from patent US20090117653A1 (Governors of the University of Alberta, priority 2007, published 2009).

Common to all, as to format: cell-based, human
For experiment [1], the system named is clonotypic MM cells in rBM (MM BMC). Description: Reduction of clonal cells in 3-D rBM culture, RQ-PCR with patient specific primers. Particulars: rBM grown 14 days, single treatment 7 days, 7 days recovery. The procedure:
(§1) For preclinical studies, the rBM was grown for 14 days to allow for stratification of the culture and expansion of the malignant cells and the stromal layer. A single treatment of either melphalan or bortezomib was administered in a fresh aliquot of Growth Medium overlaid on top of the 3-D culture. After 7 days of treatment, fresh medium was added and cells were allowed to recover for an additional period of 7 days, after which cells were isolated using the Cell Recovery Solution and the effects of treatment were analyzed, and for CFU activity of drug resistant LRC.
For real-time quantitative PCR (RQ-PCR), total genomic DNA was isolated with TRIzol™ reagent (Invitrogen, Burlington, ON) per manufacturer's instructions. […] Controls included cloned VDJ sequences for each patient used to generate a standard curve for the specific clonotypic sequence and comparison with a standard curve for a housekeeping gene, β2 microglobulin (normalized to the two copies of B2M templates/cell), to quantify the number of templates in unknown samples before and after 3-D culture. […]
FIG. 4a illustrates the reduction of the clonal cells as measured by RQ-PCR with patient specific primers (melphalan p=0.016, bortezomib p=0.39). […] Treatment of rBM with melphalan led to a 60% decrease in the number of clonotypic cells as measured by RQ-PCR.

Experiment [2] concerns rBM cells (MM BMC); CD138+/CD56+ population. Kind of experiment: Apoptosis within rBM by flow cytometry measuring AnnexinV reactivity. The procedure:
as §1
For flow cytometry, cells were isolated from 3-D cultures with Cell Recovery Solution, stained with various FITC tagged CD antigens or Annexin V-PE and analyzed by flow cytometry to measure the extent of proliferation and apoptosis using a FACSort flow cytometer (BD, Oakville, ON). Data was analyzed with CellQuest Pro software.
FIGS. 4a-d illustrate a comparative evaluation of two MM therapeutics in a 3-D BM cell culture assembly in accordance with various embodiments. […]
FIG. 4b illustrates apoptosis within rBM as assessed by flow cytometry measuring AnnexinV reactivity post treatment with melphalan (left panel) or bortezomib (middle panel). MM specific cell killing by bortezomib was monitored in the CD138+/CD56+ population by AnnexinV reactivity (right panel).

For experiment [3], the system named is LRCs (putative MM-CSC). Description: Persistence of label retaining cells (LRC) in melphalan treated 3-D cultures of mobilized blood cells, CFSE flow cytometry. Particulars: mobilized blood mononuclear cells, 14 days in 3-D, then treated. The procedure:
In the embodiments illustrated in FIGS. 1-7, 3-D cell culture and other techniques were performed. BMC were isolated from BM aspirates by Ficoll-Paque gradient centrifugation per manufacturer's instructions. Surface coating (rEnd) was created by incubating tissue culture plates with fibronectin/collagen I (1:1) in PBS at a final concentration of 5 μg/1 cm^2 of each protein. Plates were incubated for <30 min at room temperature (RT) and the remaining fluid was removed and was replaced with the rBM layer consisting of the BMC cells in an ECM mixture of Matrigel™/fibronectin (2:1 v/v). For analysis of proliferation and LRCs, cells were labeled with 0.25 μM CFSE for 15 min at 40° C. […]
For CFU assays, CFSE labeled cells were isolated from the 3-D culture and the CFSE+ cells were sorted on an EPICS ALTRA cell sorter, by gating on the live cells based on the forward and side scatter and on the CFSE+ population based on fluorescence intensity in the FL1 channel (see FIG. 6a, below). […] The MethoCult™ cultures were incubated for 14 days and the resulting colonies were counted. […]
FIG. 6a illustrates the flow cytometry profile of the LRCs. The gate for sorting was set to isolate CFSE-high cells and the percentage of LRCs was calculated as the percent of CFSE-high cells in the live cell fraction of the 3-D culture.
(In flow cytometry, cells or beads pass a laser one at a time.)

The subject of experiment [4] is stromal compartment of rBM. Particulars: brightfield microscopy; TRAP, Oil Red, ALP staining at rEnd; FIG. 4c, 4d. The procedure: as §1
For microscopy, confocal z-slices were imaged on a Carl Zeiss confocal LSM 510 microscope equipped with appropriate filters and the 3D reconstruction was done using Zeiss 510 image analysis software. Quantification of LRC positioning was performed with Imaris 3.2.2 software, Bitplane AG (Zurich, Switzerland). Stromal cells were stained with TRAP, Oil Red, Alkaline phosphatase, or Alizarin Red according to the manufacturer's instructions and imaged on Zeiss Axioskop digital microscope. For fibronectin, phalloidin and N-cadherin staining, cells were fixed with 1% neutral buffered formalin for 10 min at RT, permeabilized with 0.5% Triton X-100 and non-specific binding was blocked with 1% BSA for 1 hr at RT. […]

Consider `CC(C)C[C@H](NC(=O)[C@H](Cc1ccccc1)NC(=O)c1cnccn1)B(O)O` [bortezomib], for which the “reduction in clonotypic cells (in words)” value in experiment [1] (FIG. 4a, p=0.39) was “neither a significant reduction in clonotypic cells”. The “apoptosis in CD138+CD56+ PC population (AnnexinV reactivity)” value in experiment [2] (CD138+/CD56+ population, FIG. 4b right panel) was “the only cell population subject to bortezomib induced apoptosis”.

With `N[C@@H](Cc1ccc(N(CCCl)CCCl)cc1)C(=O)O` [melphalan], the “decrease in the number of clonotypic cells as measured by RQ-PCR” value in experiment [1] (p=0.016) was found to be 60%. In addition, the “depletion in 3-D of other hematopoietic cells” value in experiment [3] is reported as not below 50%. Also, the “enrichment of LRCs in treated 3-D cultures” value in experiment [3] (CFSE labeled, FIG. 6a) is 50%. Moreover, the “apoptosis in rBM (AnnexinV reactivity)” value in experiment [2] (overall rBM, post treatment, FIG. 4b, 4c) is “induced apoptosis of all cell types within the hematopoietic hierarchy”. In addition, the “effect on stromal compartment of rBM” value in experiment [4] is reported as “remained intact”.
